Measured values as given in patent publication US12439945B2, “Method of improving flavor of a composition of (D)-β-hydroxybutyric acid and (D)-1,3 butanediol and use as a nutritional supplement and therapeutic agent” (VitaNav, Inc., priority 2020, dated 2025).

Experiment: Circulating ketone level and ketotic efficiency after administration of D-BHB, D-BHV and D-1,3BD in various ratios to subjects at rest
Type: in vivo, human
Settings: based on measured plasma levels of FIG. 1
Description: Examples include using a composition including D-BHB, D-BHV, and D-1,3BD in a subject at rest. The ketotic efficiency represents the net elevation of circulating ketones a ketone supplement affects over time in an individual. Ketotic efficiency may be represented as: Σt=0^n(mMol/L)/(g/kg)*t where mMol/L is the concentration of circulating β-hydroxybutyrate in the blood, g is the total dose of the combined D-BHB, D-BHV, and D-1,3,BD in grams, kg is the mass of the individual in kilograms, and t is an increment of time in minutes.
While this example pertains to a fasted subject at rest, the relative utility of blended vs pure constituents has also been observed in fed and active subjects.
As illustrated by the examples of FIG. 1, these exemplary compositions can advantageously elevate circulating ketones by approximately two times greater than other known compositions. Such a composition can sustain ketonemia for longer than either D-BHB or D-1,3BD can when ingested alone by a subject of a given weight as shown by the 100% line (i.e., contains D-BHB, but not D-1,3BD) and the 0% line (i.e., contains only D-1,3BD, but not D-BHB).
As shown in the following table, the increase in circulating ketone level with a 10 g dose in three human subjects at rest was maximal at between 45-55% D-BHB in the tested compositions. […]

SMILES	prolonged rise of blood ketone levels
CC(O)CCO [D-1,3BD, (D)-1,3 butanediol]	does not cause a prolonged rise of blood ketone levels
CC(O)CC(=O)O [D-BHB, (D)-β-hydroxybutyric acid]	A similar result was obtained
